Experimental findings from US12421235B2, “Bridged tricyclic carbamoylpyridone compounds and uses thereof” (Gilead Sciences, Inc., priority 2020, dated 2025) are described below.

The structures appear in SMILES notation.

Data set [1] in a line: Cytotoxicity assay in MT-4 cells. The class given is cell-based. To be noted: human, uninfected MT-4 cells, Cell Titer Glo. The procedure: (§1) Compounds were tested in a high-throughput 384-well assay format for their ability to inhibit the replication of HIV-1 (IIIB) in MT-4 cells. Compounds were serially diluted (1:3) in DMSO on 384-well polypropylene plates and further diluted 200-fold into complete RPMI media (10% FBS, 1% P/S) using the Biotek Micro Flow and Labcyte ECHO acoustic dispenser. Each plate contained up to 8 test compounds, with negative (No Drug Control) and 5 μM AZT positive controls. MT-4 cells were pre-infected with 10 μL of either RPMI (mock-infected) or a fresh 1:250 dilution of HIV-1 IIIB concentrated virus stock. Infected and uninfected MT-4 cells were further diluted in complete RPMI media and added to each plate using a Micro Flow dispenser. After 5 days incubation in a humidified and temperature controlled incubator (37° C.), Cell Titer Glo (Promega) was added to the assay plates and chemiluminescence read using an Envision plate-reader. EC50 values were defined as the compound concentration that causes a 50% decrease in luminescence signal, and were calculated using a sigmoidal dose-response model to generate curve fits. Cytotoxicity Assay in MT-4 Cells Assays were performed as above except uninfected MT-4 cells were added to each well containing test compound. In addition, 10 μM puromycin was added to the last column of each assay plate to assess a base level of cytotoxicity.

The test system of data set [2] is pLai RLuc reporter virus in MT-4 cells. The data set can be described thus: HIV MT-4 serum shift antiviral reporter assay. The class given is cell-based. Particulars: Human immunodeficiency virus 1, MT4, 72 h, read-out: RLUC CCM. The procedure: Example 48: HIV MT-4 Serum Shift Antiviral Reporter Assay
To quantify the amount of protein binding to human serum, compounds were serially diluted (1:3) in DMSO and acoustically transferred onto 384-well assay plates via a Labcyte ECHO robot. Each plate contained up to 8 test compounds, including negative and positive controls, (DMSO, 5 μM AZT respectively). Assay plates were prepared in duplicate, and tested in either CCM (cell culture media) or HS/CCM (human serum/cell culture media). MT-4 cells were first pre-infected with pLai RLuc reporter virus for 2 h at 37° C., then further diluted in either CCM (RPMI media, 10% FBS, 1% P/S) or HS/CCM (RPMI media, 10% FBS, 50% HS, 1% P/S), and subsequently added to each plate using a Biotek Micro Flow dispenser. After a 72-h incubation in a humidified and temperature controlled incubator (37° C.), Renilla Glo (Promega) was added to all assay plates and chemiluminescence read using an Envision plate-reader. EC50 values were defined as the compound concentration that causes a 50% decrease in luminescence signal, and were calculated using a sigmoidal dose-response model to generate curve fits. To determine the amount of protein binding, EC50 fold shifts (or EC50 shifts) were calculated by dividing EC50 (HS/CCM)/EC50 (CCM). […]

A short description of data set [3]: High throughput microsomal stability assay (human liver microsomes). To be noted: for HLM stability: human liver microsomes, 1 uM compound, NADPH + UDPGA cofactors, 37 C. The class given is in vitro ADME. The procedure:
Example 49: High Throughput Microsomal Stability Assay
Metabolic stability of compounds was assessed using Human, or Rat Liver Microsomal assays (Corning). In this assay, 10 nL compounds at concentration of 1 mM in 100% DMSO were dispensed into 384-well polypropylene plates using the Echo 550 acoustic liquid dispenser (Labcyte®). Each plate contained 384 wells with a single test compound in each well.
A solution of human (Corning® Gentest™ Human Mixed Pooled Microsomes), or rat (Corning® Gentest™ Rat [Sprague-Dawley] Pooled Liver Microsomes) liver microsomes at 2 mg/ml in 100 mM K2HPO4/KH2PO4 pH 7.4 with Alamethicin from Trichoderma viride (Sigma-Aldrich) 0.0225 mg/ml were incubated on ice for 15 minutes. 5 uL of this solution was added to individual wells following 15 minute incubation at room temperature; and supplemented with 5 uL NADPH Regenerating Solution of cofactors (Corning® Gentest™ UGT Reaction Mix) containing 100 mM K2HPO4/KH2PO4 pH 7.4, 2.6 mM NADP+, 6.6 mM glucose-6-phosphate, 6.6 mM MgCl2, 0.8 U/mL glucose-6-phosphate dehydrogenase, 0.1 mM Sodium Citrate, 6.8 mM uridine diphosphate-glucuronic acid. Final concentration of analyte compounds at the beginning of the reaction was 1 uM. The reactions were incubated at 37° C. and time points of 0, 5, 15, 30, 40, 50, 60, and 70 minutes were collected for further analysis. Background data were collected using reactions without analyte compounds.
Upon collection of the reaction time points, samples were quenched with 30 uL of a solution of 72% acetonitrile, 8% methanol, 0.1% formic acid, 19.9% water, and internal standard (IS). Reaction plates were span in a centrifuge at speed of 4,000 rcf for 30 minutes and 4° C., following a dilution of the 10 uL quenched reaction into 40 uL de-ionized water, yielding assay plates.
Assay plates were analyzed using solid-state extraction coupled with quadrupole time-of-flight mass spectrometer, using Agilent QToF 6530 RapidFire 360 system, with C4 type A solid state cartridges. Analysis was performed in either positive or negative ionization modes. Mobile phases contained 0.1% formic acid in water for loading analytes onto solid state extraction cartridges, and 0.1% formic acid in acetonitrile for elution into mass spectrometer in positive ionization mode, or 0.1% acetic acid in water for loading and 0.1% acetic acid in acetonitrile for extraction in negative ionization mode. Peak-area ratios of integrated counts for individual compounds to IS were plotted as semi-logarithmic chart of log vs time. Initial, linear portion of decay was fitted to a linear regression equation to derive half time of a compound decay.
Pharmacological parameters for an analyte compound metabolism were calculated using the following equations: […]
Where. Calculation of In Vitro Intrinsic Clearance
Concentration refers to the protein concentration (mg/mL) in the reaction.
Calculation of In Vivo Intrinsic Clearance
This scales the in vitro intrinsic clearance up to the value that would be predicted for the entire mass of liver tissue (but with no restriction by blood flow). The value depends upon the size of the liver (species-dependent) and the yield of microsomal protein as appropriate (assumed to be species-independent).
Calculation of Predicted Clearance
Hepatic clearance will depend upon the inter-relationship of intrinsic clearance and hepatic blood flow and can be predicted from in vitro data using a variety of approaches.
Calculation of Hepatic Extraction
This is simply the predicted clearance expressed as a proportion of hepatic blood flow. E=CL/QH*100%
Intrinsic clearance of the instant compounds, as well as for reference compounds A-F, were calculated following the procedure above.

For data set [4], the system named is HIV-1 (IIIB) in MT-4 cells. The data set can be described thus: HIV MT-4 antiviral assay. Particulars: Human immunodeficiency virus 1, MT4, 120 h, 5 days, Cell Titer Glo. The class given is cell-based. The procedure:
Example 47: HIV MT-4 Antiviral and Cytotoxicity Assay
Antiviral Assay in MT-4 Cells
as §1, with “fits.” for “fits. Cytotoxicity Assay in MT-4 Cells Assays were performed as above except uninfected MT-4 cells were added to each well containing test compound. In addition, 10 μM puromycin was added to the last column of each assay plate to assess a base level of cytotoxicity.”

In the case of `CO[C@@H]1CC[C@H](C)N2C[C@H]1n1cc(C(=O)NCc3c(F)cc(F)cc3F)c(=O)c(O)c1C2=O` [Example 6, (3S,6R,7R)-12-hydroxy-6-methoxy-3-methyl-1,11-dioxo-N-(2,4,6-trifluorobenzyl)-1,4,5,6,7,11-hexahydro-3H-2,7-methanopyrido[1,2-a][1,4]diazonine-10-carboxamide], half-maximal cytotoxicity in data set [1] (CC50 at 5 days) was put at 13000 nM. Further, the EC50 in data set [2] came out at 0.5 nM; in data set [4] it was 1.4 nM. In addition, the HLM stability in data set [3] stood at 4.83 mL/min/kg. Also, in data set [3] (relative to compound D), the “MS Cl improvement” value was 2.3 times relative to compound D.

In data set [1], `C[C@H]1CC[C@H](O)[C@@]2(C)CN1C(=O)c1c(O)c(=O)c(C(=O)NCc3ccc(F)cc3F)cn12` [Example 43, (3S,6S,7R)—N-(2,4-difluorobenzyl)-6,12-dihydroxy-3,7-dimethyl-1,11-dioxo-1,4,5,6,7,11-hexahydro-3H-2,7-methanopyrido[1,2-a][1,4]diazonine-10-carboxamide] showed a cytotoxic concentration (CC50) at 5 days of 23600 nM. The EC50 in data set [2] amounted to 0.71 nM; in data set [4], 1.3 nM. In data set [3], the HLM stability worked out at 4.83 mL/min/kg.

Take `[2H]C([2H])([2H])[C@]1(O)C=C[C@H](C)N2C[C@H]1n1cc(C(=O)NCc3c(F)cc(F)cc3F)c(=O)c(O)c1C2=O` [Example 29, (1R,10S,13S)-6,13-dihydroxy-10-methyl-5,8-dioxo-13-(trideuteriomethyl)-N-[(2,4,6-trifluorophenyl)methyl]-2,9-diazatricyclo[7.4.1.02,7]tetradeca-3,6,11-triene-4-carboxamide]: in data set [1], the midpoint of cytotoxicity, the CC50 at 5 days, lay at 13000 nM. The results for the EC50 in data set [2] and in data set [4] were 0.74 nM and 2 nM, respectively. For the same molecule, in data set [3], the HLM stability was 1.83 mL/min/kg.

For `C[C@H]1CC[C@](C)(O)[C@H]2CN1C(=O)c1c(O)c(=O)c(C(=O)NCc3ccc(F)cc3F)cn12` (single isomer, unassigned) [Example 12], in data set [1], the half-maximal cytotoxic concentration (CC50) at 5 days was determined as 41300 nM. Moreover, the results for the EC50 in data set [2] and in data set [4] were 0.61 nM and 1.4 nM, respectively. The HLM stability in data set [3] was determined as 2.5 mL/min/kg. The “MS Cl improvement” value in data set [3] (relative to compound F) was 3.3 times relative to compound F.

`C[C@H]1CC[C@H](O)[C@H]2CN1C(=O)c1c(O)c(=O)c(C(=O)NCc3ccc(F)cc3F)cn12` [Example 16, (3S,6S,7R)—N-(2,4-difluorobenzyl)-6,12-dihydroxy-3-methyl-1,11-dioxo-1,4,5,6,7,11-hexahydro-3H-2,7-methanopyrido[1,2-a][1,4]diazonine-10-carboxamide] yielded a half-maximal cytotoxic concentration (CC50) at 5 days in data set [1] of 41400 nM. The EC50 in data set [2] was 1.14 nM; in data set [4], 2.6 nM. For the same molecule, in data set [3], the HLM stability is 1.83 mL/min/kg.

In data set [1], `[2H]C([2H])([2H])[C@]1(O)C=C[C@H](C)N2C[C@H]1n1cc(C(=O)NCc3ccc(F)cc3F)c(=O)c(O)c1C2=O` [Example 30, (1R,10S,13S)—N-[(2,4-difluorophenyl)methyl]-6,13-dihydroxy-10-methyl-5,8-dioxo-13-(trideuteriomethyl)-2,9-diazatricyclo[7.4.1.02,7]tetradeca-3,6,11-triene-4-carboxamide] gave a CC50 at 5 days of 7480 nM. For the same molecule, the HLM stability in data set [3] is 1.83 mL/min/kg. The molecule also registered an EC50 in data set [4] of 2.1 nM.

In the case of `C[C@H]1C=C[C@H](O)[C@H]2CN1C(=O)c1c(O)c(=O)c(C(=O)NCc3ccc(F)cc3F)cn12` [Example 20, (3S,6S,7R)—N-(2,4-difluorobenzyl)-6,12-dihydroxy-3-methyl-1,11-dioxo-1,6,7,11-tetrahydro-3H-2,7-methanopyrido[1,2-a][1,4]diazonine-10-carboxamide], in data set [1], it took 30000 nM to reach half-maximal cytotoxicity (CC50 at 5 days). In addition, the HLM stability in data set [3] is 1.83 mL/min/kg. This molecule showed an EC50 in data set [4] of 2.8 nM.

`C[C@H]1C=C[C@H](OC(F)F)[C@H]2CN1C(=O)c1c(O)c(=O)c(C(=O)NCc3c(F)cc(F)cc3F)cn12` [Example 22, (3S,6S,7R)-6-(difluoromethoxy)-12-hydroxy-3-methyl-1,11-dioxo-N-(2,4,6-trifluorobenzyl)-1,6,7,11-tetrahydro-3H-2,7-methanopyrido[1,2-a][1,4]diazonine-10-carboxamide] showed a CC50 at 5 days in data set [1] of 8910 nM. For the same molecule, in data set [3], the HLM stability turned out to be 14 mL/min/kg. The EC50 in data set [4] came to 1.7 nM.

As for `C[C@H]1C=C[C@H](O)[C@H]2CN1C(=O)c1c(O)c(=O)c(C(=O)NCc3c(F)cc(F)cc3F)cn12` [Example 14, (3S,6S,7R)-6,12-dihydroxy-3-methyl-1,11-dioxo-N-(2,4,6-trifluorobenzyl)-1,6,7,11-tetrahydro-3H-2,7-methanopyrido[1,2-a][1,4]diazonine-10-carboxamide], the CC50 at 5 days in data set [1] is 50000 nM. Further, the HLM stability in data set [3] is 2.67 mL/min/kg. The same molecule registered an EC50 in data set [4] of 4.2 nM.

Turning to `CO[C@@]1(C)C=C[C@H](C)N2C[C@H]1n1cc(C(=O)NCc3c(F)cc(F)cc3F)c(=O)c(O)c1C2=O` (single isomer, unassigned) [Example 24], in data set [1], the CC50 at 5 days was determined as 11100 nM. For the same molecule, in data set [3], the HLM stability stood at 11.5 mL/min/kg. The EC50 in data set [4] came out at 2.2 nM.
